Experimental data: patent publication US20190187155A1, “COMPOSITION AND METHODS FOR MEASURING ION CHANNEL ACTIVITY IN A CELL” (LIFE TECHNOLOGIES CORPORATION, priority 2016, published 2019)

Tested on: CHO cells expressing the hERG ion channel
Assay: Thallium influx assay of cells expressing the hERG potassium ion channel, loaded with thallium ion indicator
Format: cell-based
Conditions: for detection of thallium ions (fluorescence dF/F over time) / response (signal amplitude) post stimulus, Compound 8 relative to Compound 9: FIG. 10, average of 5-10 wells; for detection of thallium ions (fluorescence dF/F over time) / Fold Increase Over Baseline (fluorogenic response): final thallium 2 mM; for change of fold increase (fluorogenic response) with dye loading concentration: dye concentration increased from 1 μM to 2 μM; for Fold Increase Over Baseline (fluorogenic response): loaded 60 minutes, potassium 10 mM; for response (signal amplitude) post stimulus, Compound 8 relative to Compound 9: fold increase in signal post stimulus over baseline
Method: Component A: Thallium ion indicator dye in amount that will prepare 1-10 uM solution in normal Chloride Assay Buffer. Component B: Physiological (normal) Chloride Assay Buffer: NaCl 145 mM; KCl 2.5 mM; CaCl2 1.8 mM; MgCl2 1.0 mM; HEPES 20 mM; pH set to 7.4 with NaOH. Component C: Chloride Free Stimulus Buffer: 140 mM Na Gluconate; 2.5 mM K Gluconate; 1.8 […] Ca Gluconate; 1.0 mM Mg Gluconate; 10 mM HEPES; 25 mM K2SO4; 5.0 mM Tl2SO4.
Cells including an ion channel are cultured to about 75% confluence and in log-phase growth. The cells are then harvested using well-known cell culture techniques and buffers and replated into a 96 well plate at a density of, for example, 5,000-40,000 cells per well (e.g., 20,000 cells per well). The cells comprise the ion channel endogenously, or the cells can be engineered to comprise ion channels of a particular type. Methods of transfecting and/or transforming cells to express a particular type of protein are well known in the art and need not be repeated herein.
To prepare the dye loading buffer, Component A is prepared in assay buffer (Component B) at concentrations from 1-20 micromolar. Optional addition of 1-100 μg/mL Pluronic surfactant can aid-in dispersion and loading of dye and/or 1-10 mM probenecid to aid in retention of the dye. Next the cell culture media is aspirated from the cells in the 96 well plate and replaced with dye loading buffer and incubated at room temperature for 60-120 minutes. While the cells are incubating in loading buffer, stimulus buffer (Component C) is prepared for addition to the microplate. The loading buffer then is removed from the cells, and replaced with […] that contains no dye, to reduce background fluorescence from unincorporated dye in the solution. Next, the fluorescence from the cells is read on a spectrophotometer. For samples implementing a thallium indicator that emits in the green spectral region, the sample is excited with light in the range of 470-500 nm, and emission is read at 520 to 540 nm, with a filter cutoff of 515 nm. For samples implementing a thallium indicator that emits in the red spectral region, the sample is excited with light in the range of 545-565 nm and read at 580-600 nm, with a filter cutoff of 570 nm. A pre-stimulus “baseline” signal is measured at regular intervals for 10-30 seconds in advance of adding Stimulus Buffer (Component C). Component C is added to the cells in a 1:5 dilution at the indicated time, and the increase in fluorescence from the cells is measured over time.
Cells expressing the hERG potassium ion channel were assayed using the method described in Example 10 to compare the efficacy of two different isomeric thallium ion indicators. CHO cells expressing the hERG ion channel were assayed using methods described herein. Cells were loaded in assay buffer containing the indicated concentration of dye in Table 1 (i.e., 1 or 10 μM) washed with dye-free assay buffer (Component B) and the stimulus buffer (Component C) was delivered to the cells in a volume of 25 μL, added to 100 μL for a 5× dilution (Component C, containing 25 mM T K2SO4 and […]). In this particular example, the final concentration of potassium on the cells was 10 mM and the final concentration of thallium on the cells was 2 mM. […] Fluorescence data from the samples was plotted over time as fold increase in signal (post stimulus) over baseline (pre stimulus). Signal amplitude was compared from an average of 5-10 individual wells loaded with the dye indicated.
Cells expressing the hERG potassium ion channel were assayed using the thallium influx method described in Example 11 to compare the efficacy of various thallium ion indicators disclosed herein. Thallium indicators were prepared in loading buffer at the concentrations listed in Table 1 and loaded into cells for 60 minutes. […]

[1] = dye loading concentration 1 μM, excitation 470-500 nm, emission 520-540 nm
[2] = dye loading concentration 2 μM, excitation 470-500 nm, emission 520-540 nm

Row | SMILES | detection of thallium ions (fluorescence dF/F over time) | change of fold increase (fluorogenic response) with dye loading concentration | Fold Increase Over Baseline (fluorogenic response) [1] [fold] | Fold Increase Over Baseline (fluorogenic response) [2] [fold] | response (signal amplitude) post stimulus, Compound 8 relative to Compound 9 | response (signal amplitude) post stimulus, Compound 8 relative to Compound 9 (listed as compound 8) | Fold Increase Over Baseline (fluorogenic response) (dye loading concentration 10 μM, excitation 545-565 nm, emission 580-600 nm) [fold]
1 | COc1ccc(NC(=O)c2ccc3c(c2)C(=O)OC32c3cc(F)c(OC(C)=O)cc3Oc3cc(OC(C)=O)c(F)cc32)cc1N(CC(=O)OCOC(C)=O)CC(=O)OCOC(C)=O [Compound 9, bis(acetoxymethyl) 2,2′-((5-(3′,6′-diacetoxy-2′,7′-difluoro-3-oxo-3H-spiro[isobenzofuran-1,9′-xanthene]-5-carboxamido)-2-methoxyphenyl)azanediyl)diacetate] | detected the presence of thallium ions | not affected | 2.0 | 2.0 | – | – | –
2 | COc1ccc(NC(=O)c2ccc3c(c2)C2(OC3=O)c3cc(F)c(OC(C)=O)cc3Oc3cc(OC(C)=O)c(F)cc32)cc1N(CC(=O)OCOC(C)=O)CC(=O)OCOC(C)=O [Compound 4, bis(acetoxymethyl) 2,2′-((5-(3′,6′-diacetoxy-2′,7′-difluoro-3-oxo-3H-spiro[isobenzofuran-1,9′-xanthene]-6-carboxamido)-2-methoxyphenyl)azanediyl)diacetate] | – | – | 1.5 | 1.4 | – | – | –
3 | COc1cc(NC(=O)c2ccc3c(c2)C2(OC3=O)c3ccc(OC(C)=O)cc3Oc3cc(OC(C)=O)ccc32)ccc1N(CC(=O)OCOC(C)=O)CC(=O)OCOC(C)=O [Compound 6, bis(acetoxymethyl) 2,2′-((4-(3′,6′-diacetoxy-3-oxo-3H-spiro[isobenzofuran-1,9′-xathene]-6-carboxamido)-2-methoxyphenyl)azanediyl)diacetate] | – | – | 3.7 | 2.8 | – | – | –
4 | COc1cc(NC(=O)c2ccc3c(c2)C2(OC3=O)c3cc(F)c(OC(C)=O)cc3Oc3cc(OC(C)=O)c(F)cc32)ccc1N(CC(=O)OCOC(C)=O)CC(=O)OCOC(C)=O [Compound 7, bis(acetoxymethyl) 2,2′-((4-(3′,6′-diacetoxy-2′,7′-difluroro-3-oxo-3H-spiro[isobenzofuran-1,9′-xanthene]-6-carboxamido)-2-methoxyphenyl)azanediyl)diacetate] | – | – | 2.3 | 1.5 | – | – | –
5 | COc1cc(NC(=O)c2ccc3c(c2)C(=O)OC32c3cc(F)c(OC(C)=O)cc3Oc3cc(OC(C)=O)c(F)cc32)ccc1N(CC(=O)OCOC(C)=O)CC(=O)OCOC(C)=O [Compound 8, bis(acetoxymethyl) 2,2′-((4-(3′,6′-diacetoxy-2′,7′-difluoro-3-oxo-3H-spiro[isobenzofuran-1,9′-xanthene]-5-carboxamido)-2-methoxyphenyl)azanediyl)diacetate] | detected the presence of thallium ions | not affected | 3.4 | 3.4 | far more sensitive to thallium ions than Compound 9 | larger response (signal amplitude) | –
6 | COc1ccc(NC(=O)c2ccc3c(c2)C2(OC3=O)c3ccc(OC(C)=O)cc3Oc3cc(OC(C)=O)ccc32)cc1N(CC(=O)OCOC(C)=O)CC(=O)OCOC(C)=O [Compound 3, bis(acetoxymethyl) 2,2′-((5-(3′,6′-diacetoxy-3-oxo-3H-spiro[isobenzofuran-1,9′-xanthene]-6-carboxamido)-2-methoxyphenyl)azanediyl)diacetate] | – | – | 1.1 | 0.8 | – | – | –
7 | COc1cc(NC(=O)c2ccc3c(c2)C(=O)OC32c3ccc(OC(C)=O)cc3Oc3cc(OC(C)=O)ccc32)ccc1N(CC(=O)OCOC(C)=O)CC(=O)OCOC(C)=O [Compound 5, bis(acetoxymethyl) 2,2′-((4-(3′,6′-diacetoxy-3-oxo-3H-spiro[isobenzafuran-1,9′-xanthene]-5-carboxamido)-2-methoxyphenyl)azanediyl)diacetate] | – | decreased significantly | 3.7 | 3.1 | – | – | –
8 | COc1ccc(NC(=O)c2ccc3c(c2)C(=O)OC32c3ccc(OC(C)=O)cc3Oc3cc(OC(C)=O)ccc32)cc1N(CC(=O)OCOC(C)=O)CC(=O)OCOC(C)=O [Compound 2, bis(acetoxymethyl) 2,2′-((5-(3′,6′-diacetoxy-3-oxo-3H-spiro[isobenzofuran-1,9′-xanthene]-5-carboxamido)-2-methoxyphenyl)azanediyl)diacetate] | – | little to no change | 1.2 | 1.3 | – | – | –
9 | COc1cc(-c2c3ccc(=[N+](C)C)cc-3oc3cc(N(C)C)ccc23)ccc1N(CC(=O)OCOC(C)=O)CC(=O)OCOC(C)=O.[Br-] [Compound 1, N-(9-(4-(bis(2-(acetoxymethoxy)-2-oxoethyl)amino)-3-methoxyphenyl)-6-(dimethylamino)-3H-xanthen-3-ylidene)-N-methylmethanaminium bromide] | – | – | – | – | – | – | 2.7
